For test [1], the system named is wheat leaf rust fungus (Puccinia recondita). In words: Wheat leaf rust control test (foliar spray on wheat seedlings). As to conditions: 240 h, 125 ppm active ingredient, sprayed on wheat seedlings (variety Norin 61) before inoculation, 10 days, vs untreated. It counts as in vivo.
The subject of test [2] is cucumber gray mold fungus (Botrytis cinerea). In words: Cucumber gray mold control test (foliar spray on cucumber seedlings). The settings on record: in Cucumis sativus, 96 h, read-out: control value.
The subject of test [3] is Apple scab fungus (Venturia inaequalis). Kind of test: Apple scab control test (foliar spray on apple seedlings). It counts as in vivo. The settings on record: 125 ppm active ingredient, sprayed on apple seedlings (variety Orin) before inoculation, vs untreated. The protocol: The dilution was sprayed to apple seedlings (variety “Orin”, 3 to 4 leaf stage) grown in clay pots. […] The control value was calculated by the following equation. [formula]

Test [4] has as its system Tomato late blight fungus (Phytophthora infestans). In words: whole plant or invertebrate. It counts as in vivo. As to conditions: foliar, 96 h, read-out: control value.

This is an account of results in patent US10111437B2, “Substituted guanidines as fungicides” (Nippon Soda Co., Ltd., priority 2015, dated 2018).

Each structure is given as a SMILES string.

As for `N=C(N)NCCCCCCCNC(=N)NCCCCOc1ccc(C(=N)N)cc1` [compound 16, 4-[4-[[N-(7-guanidinoheptyl)carbamimidoyl]amino]butoxy]benzamidine], in test [1], the pest or weed control at 125 ppm is ≥ 75%.
In the case of `N=C(N)NCCCCCCCNC(=N)NCCOCc1cc(C(=N)N)cs1` [compound 48, 5-[2-[[N-(7-guanidinoheptyl)carbamimidoyl]amino]ethoxymethyl]thiophene-3-carboxamidine], the pest or weed control at 125 ppm in test [1], in test [2] and in test [3] was ≥ 75% throughout.
With `N=C(N)NCCCCCCCNC(=N)NCCCC#Cc1nc(C(=N)N)cs1` [compound 50, 2-[5-[[N-(7-guanidinoheptyl)carbamimidoyl]amino]pent-1-ynyl]thiazole-4-carboxamidine], the pest or weed control at 125 ppm in test [1], in test [2] and in test [3] was ≥ 75% in each case.
With `N=C(N)NCCCCCNC(=N)NCCCCOc1ccc(C(=N)N)cc1` [compound 59], the pest or weed control at 125 ppm in test [1], in test [2] and in test [3] was ≥ 75% throughout.
Consider `CN(CCCOc1ccc(C(=N)N)cc1)C(=N)NCCCOc1ccc(C(=N)N)cc1` [compound 72], for which the pest or weed control at 125 ppm in test [1], in test [2] and in test [3] was ≥ 75% in each case.
Turning to `Cc1c(C)n(CCCCOc2ccc(C(=N)N)cc2)c(=N)n1CCCCOc1ccc(C(=N)N)cc1` [compound 105], the pest or weed control at 125 ppm in test [4], in test [2] and in test [3] was ≥ 75% in each case.
For the compound `CNC(=N)c1ccc(OCCCn2ccn(CCCOc3ccc(C(=N)NC)cc3)c2=N)cc1` [compound 116], the pest or weed control at 125 ppm in test [4], in test [2] and in test [3] was ≥ 75% throughout.
On to `CNC(=N)c1ccc(OCCCCn2ccn(CCCCOc3ccc(C(=N)NC)cc3)c2=N)cc1` [compound 118], for which the pest or weed control at 125 ppm in test [4], in test [2] and in test [3] was ≥ 75% each time.
For the compound `N=C(N)NCCCCCNC(=N)NCCCOc1ccc(C(=N)N)cc1` [compound 132], the pest or weed control at 125 ppm in test [4], in test [2] and in test [3] was ≥ 75% throughout.
For the compound `N=C(N)NCCCCCCNC(=N)NCCCOc1ccc(C(=N)N)cc1` [compound 134], the pest or weed control at 125 ppm in test [4], in test [2] and in test [3] was ≥ 75% each time.
As for `C/N=C(/NCCCOc1ccc(C(=N)N)cc1)N(C)CCCOc1ccc(C(=N)N)cc1` [compound 138], the pest or weed control at 125 ppm in test [4], in test [2] and in test [3] was ≥ 75% throughout.
For the compound `CNCCNC(=N)NCCCCCCCCNC(=N)NCCCCOc1ccc(C(=N)N)cc1` [compound 147], the pest or weed control at 125 ppm in test [4], in test [2] and in test [3] was ≥ 75% throughout.
Regarding `N=C(N)c1ccc(OCCCn2cc(-c3ccccc3)n(CCCOc3ccc(C(=N)N)cc3)c2=N)cc1` [compound 149], the pest or weed control at 125 ppm in test [4], in test [2] and in test [3] was ≥ 75% in each case.
Turning to `N=C(NCC#Cc1ccc(C(=N)N)cc1)NCC#Cc1ccc(C(=N)N)cc1` [compound 155], the pest or weed control at 125 ppm in test [4], in test [2] and in test [3] was ≥ 75% in each case.
As for `N=C(N)c1ccc(COCCCn2ccn(CCCOc3ccc(C(=N)N)cc3)c2=N)cc1` [compound 159], the pest or weed control at 125 ppm in test [4], in test [2] and in test [3] was ≥ 75% in each case.
Take `N=C(N)c1ccc(SCCCn2ccn(CCCSc3ccc(C(=N)N)cc3)c2=N)cc1` [compound 181]: the pest or weed control at 125 ppm in test [4], in test [2] and in test [3] was ≥ 75% throughout.
With `N=C(N)NCCCCCCCNC(=N)NCCCOc1ccc(C2=NCCCN2)cc1` [compound 190], the pest or weed control at 125 ppm in test [4], in test [2] and in test [3] was ≥ 75% each time.
For the compound `N=C(NCCCCOc1ccc(C(=N)N)cc1)NCCCc1cc2cc(C(=N)N)ccc2o1` [compound 196], the pest or weed control at 125 ppm in test [4], in test [2] and in test [3] was ≥ 75% in each case.
For `N=C(N)NCCCCCCCCNC(=N)NCCCSc1ccc(C(=N)N)cc1` [compound 198], the pest or weed control at 125 ppm in test [4], in test [2] and in test [3] was ≥ 75% each time.
For the compound `N=C(N)NCCCCCCCNC(=N)NCCCCOc1ccc(C2=NCCCN2)cc1` [compound 202], the pest or weed control at 125 ppm in test [4], in test [2] and in test [3] was ≥ 75% in each case.
Take `N=C(N)NCCCCCCCCNC(=N)NCCCCOc1ccc(C2=NCCCN2)cc1` [compound 204]: the pest or weed control at 125 ppm in test [1], in test [4] and in test [2] was ≥ 75% throughout.
For `N=C(N)NCCCCCCCn1ccn(CCCCOc2ccc(C3=NCCCN3)cc2)c1=N` [compound 208], the pest or weed control at 125 ppm in test [4], in test [2] and in test [3] was ≥ 75% throughout.
As for `N=C(N)NCCCCCCCCn1ccn(CCCCOc2ccc(C3=NCCCN3)cc2)c1=N` [compound 210], the pest or weed control at 125 ppm in test [4], in test [2] and in test [3] was ≥ 75% throughout.
With `N=C(N)NCCCCCCCCCn1ccn(CCCCOc2ccc(C3=NCCCN3)cc2)c1=N` [compound 212], the pest or weed control at 125 ppm in test [4], in test [2] and in test [3] was ≥ 75% each time.
`N=C(N)c1ccc(OCCCCn2ccn(CCCCOc3ccc(C4=NCCCN4)cc3)c2=N)cc1` [compound 214]: the pest or weed control at 125 ppm in test [4], in test [2] and in test [3] was ≥ 75% throughout.
On to `N=C(N)NCCCCCCCCn1ccn(CCCCOc2ccc(C(=N)N)cc2)c1=N` [compound 216], for which the pest or weed control at 125 ppm in test [1], in test [4] and in test [2] was ≥ 75% each time.
For the compound `N=C(N)NCCCCCCCCCNC(=N)NCCCOc1ccc(C2=NCCCN2)cc1` [compound 218], the pest or weed control at 125 ppm in test [1], in test [4] and in test [2] was ≥ 75% throughout.
As to `N=C(N)NCCCCCCCNC(=N)NCCCOCc1ccc(C2=NCCCN2)cc1` [compound 224], the pest or weed control at 125 ppm in test [4], in test [2] and in test [3] was ≥ 75% in each case.
As for `N=C(N)NCCCCCCCNC(=N)NCCOc1ccc(C(=N)N)cc1` [compound 236], the pest or weed control at 125 ppm in test [1], in test [2] and in test [3] was ≥ 75% in each case.
As to `N=C(N)NCCCCCCCNC(=N)NCCOCc1ccc(C2=NCCCN2)cc1` [compound 238], the pest or weed control at 125 ppm in test [1], in test [2] and in test [3] was ≥ 75% each time.
Turning to `N=C(N)NCCCCCCCNC(=N)NCCCCOc1ccc(C2=NCCN2)cc1` [compound 244], the pest or weed control at 125 ppm in test [1], in test [2] and in test [3] was ≥ 75% in each case.
With `N=C(N)NCCCCCCCCNC(=N)NCCCCCOc1ccc(C2=NCCCN2)cc1` [compound 248], the pest or weed control at 125 ppm in test [1], in test [4] and in test [2] was ≥ 75% throughout.
As for `N=C(N)NCCCCCCCCNC(=N)NCCCOCc1ccc(C2=NCCCN2)cn1` [compound 250], the pest or weed control at 125 ppm in test [4], in test [2] and in test [3] was ≥ 75% each time.
For the compound `N=C(N)NCCCCCCCCNC(=N)NCCCc1ccc(C2=NCCCN2)cc1` [compound 252], the pest or weed control at 125 ppm in test [1], in test [4] and in test [2] was ≥ 75% in each case.
As for `CC1(C)CN=C(c2ccc(OCCCCNC(=N)NCCCCCCCCNC(=N)N)cc2)NC1` [compound 258], the pest or weed control at 125 ppm in test [1], in test [4] and in test [2] was ≥ 75% throughout.
As for `N=C(N)NCCCCCCCCNC(=N)NCCCc1cc2cc(C3=NCCCN3)ccc2o1` [compound 260], the pest or weed control at 125 ppm in test [1], in test [4] and in test [2] was ≥ 75% in each case.
For `N=C(N)NCCCCCCCCNC(=N)NCc1ccc(C2=NCCCN2)cc1` [compound 262], the pest or weed control at 125 ppm in test [1], in test [2] and in test [3] was ≥ 75% in each case.
Consider `N=C(N)NCCCCCCCCNC(=N)NCC1=CC2C=C(C3=NCCCN3)C=CC2O1` (stereo not drawn) [compound 268], for which the pest or weed control at 125 ppm in test [1], in test [4] and in test [2] was ≥ 75% in each case.
In the case of `N=C(N)NCCCCCCCCNC(=N)NCCOc1ccc(C(=N)N)cc1` [compound 286], the pest or weed control at 125 ppm in test [1] and in test [2] was ≥ 75% throughout.
